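In this assay, cells in 96-well plates receive the compound at five concentrations for 48 hours. Endpoints are linearly interpolated between the surrounding concentrations. GI50 = concentration required for 50% inhibition of growth. At the TGI there is no net growth.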
Legend:
Test in all cases: inhibition of tumour cell growth, NCI panel, 48 h
[1] = tested on: MDA-MB-435
[2] = tested on: DU-145 prostate
[3] = tested on: SF-295 CNS
[4] = tested on: A498 renal
[5] = tested on: NCI/ADR-RES ovarian
[6] = tested on: MDA-MB-231 breast
[7] = tested on: HCT-116 colon
[8] = tested on: NCI-H460 lung
[9] = tested on: A549 NSCLC
[10] = tested on: 786-0 renal

Structure (SMILES)	TGI [1] [µM]	TGI [2] [µM]	TGI [3] [µM]	TGI [4] [µM]	TGI [5] [µM]	TGI [6] [µM]	TGI [7] [µM]	TGI [8] [µM]	TGI [9] [µM]	TGI [10] [µM]	GI50 [6] [µM]
C=C(C)OCOCCOC	> 100	> 100	> 100	> 100	> 100	> 100	> 100	> 100	> 100	> 100	–
Cn1c(=O)c(-c2ccccc2)c(O)c2ccccc21	> 100	> 100	> 100	> 100	> 100	> 100	> 100	> 100	> 100	> 100	–
O=C1C=CC(=O)c2c(O)c(N3CCC[C@H]3CO)c(Cl)c(O)c21	3.45	> 6.32	> 10	> 10	4.06	6.48	3.3	> 10	> 10	3.64	–
O=C1NC2CCCCC2N=C1CC(=O)c1ccc(Br)cc1 (stereo unspecified)	> 100	> 100	> 100	> 100	> 100	35.7	> 100	> 100	> 100	> 100	–
O=c1cc(-c2ccncc2)[nH]c2cc3c(cc12)OCO3	> 100	> 100	> 100	> 100	> 100	> 100	> 100	> 100	> 100	> 100	–
COc1cccc2c1C(=O)c1c(O)c3c(c(O)c1C2=O)C[C@H](O)C[C@@H]3OC1CC(N)C(O)C(C)O1 (stereo partly specified)	8.05	11.6	7.35	4.5	62.3	6.05	7.88	13.7	14.1	14.2	–
CCC(CO)Nc1nc(NCc2ccccc2)c2ncn(C(C)C)c2n1 (stereo unspecified)	> 68.1	> 100	50.9	77.3	42.3	> 94.5	> 90.2	> 100	> 100	> 80.7	–
CC(C)c1cccc(C(C)C)c1NC(=O)/C(CC(=O)CC(c1ccccc1)c1c(O)c2ccccc2oc1=O)=N/O (stereo unspecified)	> 100	> 100	> 100	> 100	> 100	> 100	> 100	> 100	> 100	> 100	–
CN1C(=O)N(C)C(O)C(Cl)(Br)C1=O (stereo unspecified)	> 100	> 100	> 100	> 100	> 100	> 100	> 100	> 100	> 100	> 100	–
CN(C)c1ccc(/C=C(\NC(=O)c2ccccc2)c2nn(C)c(=O)o2)cc1	> 100	> 100	> 100	> 100	65.6	> 100	> 100	> 100	> 100	> 100	–
CC(C)C(CC(=O)OCC(CO)OC(=O)CC(C(C)C)C(C)C)C(C)C (stereo unspecified)	28.1	28.7	21.1	29.8	27.3	33.9	33.4	26.8	24	27.9	–
NC(=O)c1csc(C2(O)COC(CO)C2O)n1 (stereo unspecified)	> 100	> 100	> 100	> 100	> 100	> 100	> 100	> 100	> 100	> 100	–
COC(=O)Cc1ccc2c(cnn2-c2ccccc2)c1OC	> 10	> 10	> 10	> 10	> 10	> 10	> 10	> 10	> 10	> 10	–
COc1ccc(OC2OC(CO)C(OCc3ccccc3)C(OCc3ccccc3)C2OCc2ccccc2)cc1 (stereo unspecified)	> 100	> 100	> 100	> 100	> 100	> 100	> 100	> 100	> 100	> 100	–
O=C(O)c1cccc2cccc(-c3cccc4cccc(C(=O)O)c34)c12	> 100	> 100	> 100	> 100	> 100	> 100	> 100	> 100	> 100	> 100	–
CC1=NN(c2nc(N)nc(-c3sccc3N)n2)C(C)(C)C1	> 100	> 100	> 100	> 100	> 100	> 100	> 100	> 100	> 100	> 100	–
Cc1[nH]c(=O)nc(NCCNCCO)c1C(=O)Nc1cccc2cc3ccccc3cc12	> 100	> 100	> 100	> 100	> 100	> 100	> 100	> 100	> 100	> 100	–
CN(C)CCCNC(=O)c1cc(NC(=O)c2cc(NC(=O)CCCn3c4ccccc4c4ccccc43)cn2C)cn1C	> 61.7	40.8	> 69.7	44.3	53.2	20.9	13.8	> 94	> 67.7	28.7	4.45

Structure (SMILES)	TGI [1] [µM]	TGI [2] [µM]	TGI [3] [µM]	TGI [4] [µM]	TGI [5] [µM]	TGI [6] [µM]	TGI [7] [µM]	TGI [8] [µM]	TGI [9] [µM]	TGI [10] [µM]	GI50 [6] [µM]
O=S(=O)(c1cc(Cl)ccc1Cl)n1ccnc1	37	> 100	> 100	95	45.7	51.2	> 100	> 100	> 100	> 100	–
O=P(O)(O)c1ccccc1Oc1ccccc1	> 100	> 100	> 100	> 100	> 100	> 100	> 100	> 100	> 100	> 100	–
CCn1c2ccc(C(=O)CCCN3CCCCC3)cc2c2cc(C(=O)CCCN3CCCCC3)ccc21	3.3	18.2	10.7	10.3	13.1	4.74	10.8	3.12	3.86	2.78	–
COc1ccc(C2C3=C(COC3=O)Oc3cc4c(cc32)OCO4)c(OC)c1 (stereo unspecified)	5.49	> 100	29.8	> 100	> 100	> 100	> 100	> 100	> 100	> 100	–
O=[N+]([O-])c1ccc(NC(=S)N=Nc2c(O)[nH]c3ccc([N+](=O)[O-])cc23)cc1	38.7	49	45.1	32.7	48.6	45	46.3	41.9	48.1	32.3	–
CCOc1ccc(Nc2nc(N)nc(N)c2N)cc1	65	> 100	45.8	> 100	> 100	> 100	> 100	98	> 100	52.3	–
COC(=O)C1(CCCCCBr)CCCCCCCCCCC1=O (stereo unspecified)	87.5	> 100	> 100	64.7	> 100	84.6	> 100	> 100	> 100	> 100	–
C=C1OC(c2ccccc2NC)=NC12CCCCC2	> 100	> 100	> 100	> 100	> 100	> 100	> 100	> 100	> 100	> 100	–
CC1(C)OCC2OC3([C@@H]4OC(C)(C)O[C@H]4CO)OC(C)(C)OC3C2O1 (stereo partly specified)	> 100	> 100	> 100	> 100	> 100	> 100	> 100	> 100	> 100	> 100	–
Cn1c(=O)c2c(nc3n(Cc4ccccc4)c(=O)c(NCCCBr)cn23)n(C)c1=O	> 100	> 100	> 100	> 100	> 100	> 100	> 100	> 100	> 100	> 100	–
Cc1ccc2c(c1)-c1c(C#N)c(N)nc(-c3ccc(Cl)cc3)c1CCS2(=O)=O	> 79.2	> 100	> 100	> 60.5	98.2	> 100	> 100	> 100	> 100	> 100	–
OCCOCn1nncc1Cn1ncc2c(SCc3ccccc3)ncnc21	> 100	> 100	> 100	> 100	> 100	> 100	> 100	> 100	> 100	> 100	–
Nc1nc(Cl)cc(NCC2(O)CC2)n1	> 100	> 100	> 100	> 100	> 100	> 100	> 100	> 100	> 100	> 100	–
CS(=O)(=O)Nc1ccc2c(c1)N(S(C)(=O)=O)CC2CCl (stereo unspecified)	> 100	> 100	> 100	> 100	> 100	> 100	> 100	> 100	> 100	> 100	–
Cc1c(CN2CCN(C)CC2)c(CN2CCN(C)CC2)c(C)n1-c1ccc(Cl)cc1	62.7	> 100	48.9	51.2	> 100	> 100	> 100	> 100	91.1	46.4	–
COc1ccc(/C=c2\s/c(=C3/SC(=S)N(c4ccccc4)C3=O)n(-c3ccccc3)c2=O)cc1	> 100	> 100	> 100	> 100	> 100	> 100	> 100	> 100	> 100	> 100	–
C[C@]12CCC(=O)[C@@H](CCC3=CC(=O)C=CC3=O)[C@@H]1CCC2=O	> 56.2	40.8	36.7	39.6	> 100	49.2	> 50.5	31.4	> 54.5	41.1	–
COc1cc(CC(C)NC(C)=O)cc(OC)c1 (stereo unspecified)	> 100	> 100	> 100	> 100	> 100	> 100	> 100	> 100	> 100	> 100	–

Source: PubChem BioAssay (NCI)
